Target: hMC2 receptor (Homo sapiens, UniProt Q01718)
Test: hMC2 membrane binding assay ([125I]ACTH (1-39) Tyr23, SPA)
Parameters: scale not given here
Settings: crude hMC2R membranes from CRE-bla-CHO-K1 cells expressing hMC2 receptor and hMRAP; [125I]ACTH (1-39) Tyr23 0.2 nM; 1.5 hours at room temperature; read-out: MC2R binding potency
How it was run: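 CRE-bla-CHO-K1 membranes co-expressing hMC2 receptor and hMRAP, preincubated with WGA PVT SPA beads in pH 7.4 HEPES/MgCl2/CaCl2/0.2% BSA buffer. Compounds (typically 0–10,000 nM final) compete with 0.2 nM [125I]ACTH(1-39) Tyr23 for 1.5 h at room temperature. SPA counts give Ki by non-linear regression.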

Chain of hMC2 receptor (Q01718 whole entry): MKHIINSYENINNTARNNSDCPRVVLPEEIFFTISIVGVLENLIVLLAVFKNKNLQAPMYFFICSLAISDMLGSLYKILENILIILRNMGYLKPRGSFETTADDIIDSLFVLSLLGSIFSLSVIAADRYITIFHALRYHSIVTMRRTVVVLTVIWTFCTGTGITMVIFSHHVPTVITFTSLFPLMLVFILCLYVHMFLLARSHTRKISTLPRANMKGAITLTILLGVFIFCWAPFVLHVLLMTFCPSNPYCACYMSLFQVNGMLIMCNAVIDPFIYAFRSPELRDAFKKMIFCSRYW
Chain of hMC2 receptor (Q8TCY5 whole entry partner): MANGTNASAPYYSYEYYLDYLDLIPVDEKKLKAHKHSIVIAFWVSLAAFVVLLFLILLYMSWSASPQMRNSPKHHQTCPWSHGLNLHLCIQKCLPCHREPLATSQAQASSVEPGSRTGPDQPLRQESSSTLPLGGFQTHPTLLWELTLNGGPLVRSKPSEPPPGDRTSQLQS

Compound: CCOc1ncccc1-c1ccc(N2CCN(C(=O)c3ccc(OC)nc3C(F)(F)F)C[C@H]2CC)c(C(=O)N[C@@H]2CCN(C)C2)c1F [Compound 1-270, 3-(2-ethoxypyridin-3-yl)-6-[(2R)-2-ethyl-4-[6-methoxy-2-(trifluoromethyl)pyridine-3-carbonyl]piperazin-1-yl]-2-fluoro-N-[(3R)-1-methylpyrrolidin-3-yl]benzamide]
- Ki: < 10 nM

Compound: CCOc1ncccc1-c1ccc(N2CCN(C(=O)c3ccc(OC)nc3C(F)(F)F)C[C@H]2CC)c(C(=O)N[C@@H]2CCNC2)c1F [Compound 1-271, 3-(2-ethoxypyridin-3-yl)-6-[(2R)-2-ethyl-4-[6-methoxy-2-(trifluoromethyl)pyridine-3-carbonyl]piperazin-1-yl]-2-fluoro-N-[(3R)-pyrrolidin-3-yl]benzamide]
- Ki: < 10 nM

Compound: CCOc1ncccc1-c1ccc(N2CCN(C(=O)C3(C(F)(F)F)CCCCC3)C[C@H]2CC)c(C(=O)N[C@@H]2CCNC2)n1 [Compound 1-273, 2′-ethoxy-5-[(2R)-2-ethyl-4-[1-(trifluoromethyl)cyclohexanecarbonyl]piperazin-1-yl]-N-[(3R)-pyrrolidin-3-yl]-[2,3′-bipyridine]-6-carboxamide]
- Ki: < 10 nM

Compound: CCOc1ncccc1-c1ccc(N2CCN(C(=O)C34CCC(C(F)(F)F)(CC3)CC4)C[C@H]2CC)c(C(=O)N[C@@H]2CCNC2)n1 [Compound 1-274, 2′-ethoxy-5-[(2R)-2-ethyl-4-[4-(trifluoromethyl)bicyclo[2.2.2]octane-1-carbonyl]piperazin-1-yl]-N-[(3R)-pyrrolidin-3-yl]-[2,3′-bipyridine]-6-carboxamide]
- Ki: < 10 nM

Compound: CCOc1ncccc1-c1ccc(N2CCN(C(=O)c3ccc(Cl)cc3C(F)(F)F)C[C@H]2CC)c(C(=O)N[C@H]2CNC[C@H]2F)n1 [Compound 1-275, 5-[(2R)-4-[4-chloro-2-(trifluoromethyl)benzoyl]-2-ethylpiperazin-1-yl]-2′-ethoxy-N-[(3S,4R)-4-fluoropyrrolidin-3-yl]-[2,3′-bipyridine]-6-carboxamide]
- Ki: < 10 nM

Compound: CCOc1ncccc1-c1ccc(N2CCN(C(=O)c3ccc(Cl)cc3C(F)(F)F)C[C@H]2CC)c(C(=O)N[C@@H]2CNC[C@H]2F)n1 [Compound 1-276, 5-[(2R)-4-[4-chloro-2-(trifluoromethyl)benzoyl]-2-ethylpiperazin-1-yl]-2′-ethoxy-N-[(3R,4R)-4-fluoropyrrolidin-3-yl]-[2,3′-bipyridine]-6-carboxamide]
- Ki: < 10 nM

Compound: CCOc1ncccc1-c1ccc(N2CCN(C(=O)c3ccc(Cl)cc3C#N)C[C@H]2CC)c(C(=O)N[C@@H]2CCNC2)n1 [Compound 1-277, 5-[(2R)-4-(4-chloro-2-cyanobenzoyl)-2-ethylpiperazin-1-yl]-2′-ethoxy-N-[(3R)-pyrrolidin-3-yl]-[2,3′-bipyridine]-6-carboxamide]
- Ki: < 10 nM

Compound: CCOc1ncccc1-c1ccc(N2CCN(C(=O)c3ccc(F)cc3C(F)F)C[C@H]2CC)c(C(=O)N[C@@H]2CCNC2)n1 [Compound 1-278, 5-[(2R)-4-[2-(difluoromethyl)-4-fluorobenzoyl]-2-ethylpiperazin-1-yl]-2′-ethoxy-N-[(3R)-pyrrolidin-3-yl]-[2,3′-bipyridine]-6-carboxamide]
- Ki: < 10 nM

Compound: CCOc1ncccc1-c1ccc(N2CCN(C(=O)c3ccc(F)cc3C(F)F)C[C@H]2CC)c(C(=O)N[C@@H]2CCN(C)C2)n1 [Compound 1-279, 5-[(2R)-4-[2-(difluoromethyl)-4-fluorobenzoyl]-2-ethylpiperazin-1-yl]-2′-ethoxy-N-[(3R)-1-methylpyrrolidin-3-yl]-[2,3′-bipyridine]-6-carboxamide]
- Ki: < 10 nM

Compound: CCOc1ncccc1-c1ccc(N2CCN(C(=O)C3(C(F)(F)F)CCC3)C[C@H]2CC)c(C(=O)N[C@@H]2CCNC2)n1 [Compound 1-280, 2′-ethoxy-5-[(2R)-2-ethyl-4-[1-(trifluoromethyl)cyclobutanecarbonyl]piperazin-1-yl]-N-[(3R)-pyrrolidin-3-yl]-[2,3′-bipyridine]-6-carboxamide]
- Ki: < 10 nM

Compound: CCOc1ncccc1-c1ccc(N2CCN(C(=O)C34CCC(C(F)(F)F)(CC3)CC4)C[C@H]2CC)c(C(=O)N[C@@H]2CCN(C)C2)n1 [Compound 1-282, 2′-ethoxy-5-[(2R)-2-ethyl-4-[4-(trifluoromethyl)bicyclo[2.2.2]octane-1-carbonyl]piperazin-1-yl]-N-[(3R)-1-methylpyrrolidin-3-yl]-[2,3′-bipyridine]-6-carboxamide]
- Ki: < 10 nM

Compound: CCOc1ncccc1-c1ccc(N2CCN(C(=O)C3(C(F)(F)F)CCC3)C[C@H]2CC)c(C(=O)N[C@@H]2CCN(C)C2)n1 [Compound 1-283, 2′-ethoxy-5-[(2R)-2-ethyl-4-[1-(trifluoromethyl)cyclobutanecarbonyl]piperazin-1-yl]-N-[(3R)-1-methylpyrrolidin-3-yl]-[2,3′-bipyridine]-6-carboxamide]
- Ki: < 10 nM

Compound: CCOc1ncccc1-c1ccc(N2CCN(C(=O)[C@H]3CC[C@@H](C(F)(F)F)CC3)C[C@H]2CC)c(C(=O)N[C@@H]2CCN(C)C2)n1 [Compound 1-286, 2′-ethoxy-5-[(2R)-2-ethyl-4-[cis-4-(trifluoromethyl)cyclohexanecarbonyl]piperazin-1-yl]-N-[(3R)-1-methylpyrrolidin-3-yl]-[2,3′-bipyridine]-6-carboxamide]
- Ki: < 10 nM

Compound: CCOc1ccccc1-c1ccc(N2CCN(C(=O)c3ccc(Cl)cc3C(F)F)C[C@H]2CC)c(C(=O)N[C@@H]2CCN(C)C2)n1 [Compound 1-287, 3-[(2R)-4-[4-chloro-2-(difluoromethyl)benzoyl]-2-ethylpiperazin-1-yl]-6-(2-ethoxyphenyl)-N-[(3R)-1-methylpyrrolidin-3-yl]pyridine-2-carboxamide]
- Ki: < 10 nM

Compound: CCOc1ccccc1-c1ccc(N2CCN(C(=O)c3ccc(Cl)cc3C(F)F)C[C@H]2CC)c(C(=O)N[C@@H]2CCNC2)n1 [Compound 1-288, 3-[(2R)-4-[4-chloro-2-(difluoromethyl)benzoyl]-2-ethylpiperazin-1-yl]-6-(2-ethoxyphenyl)-N-[(3R)-pyrrolidin-3-yl]pyridine-2-carboxamide]
- Ki: < 10 nM

Compound: CCOc1ncccc1-c1ccc(N2CCN(C(=O)c3ccc(OC)nc3C(F)(F)F)C[C@H]2CC)c(C(=O)N[C@@H]2CNC[C@H]2F)n1 [Compound 1-289, 2′-ethoxy-5-[(2R)-2-ethyl-4-[6-methoxy-2-(trifluoromethyl)pyridine-3-carbonyl]piperazin-1-yl]-N-[(3R,4R)-4-fluoropyrrolidin-3-yl]-[2,3′-bipyridine]-6-carboxamide]
- Ki: < 10 nM

Compound: CCOc1ncccc1-c1ccc(N2CCN(C(=O)c3ccc(OC)nc3C(F)(F)F)C[C@H]2CC)c(C(=O)N[C@@H]2CN(C)C[C@H]2F)n1 [Compound 1-290, 2′-ethoxy-5-[(2R)-2-ethyl-4-[6-methoxy-2-(trifluoromethyl)pyridine-3-carbonyl]piperazin-1-yl]-N-[(3R,4R)-4-fluoro-1-methylpyrrolidin-3-yl]-[2,3′-bipyridine]-6-carboxamide]
- Ki: < 10 nM

Compound: CCOc1ncccc1-c1ccc(N2CCN(C(=O)c3ccc(OC)nc3C(F)(F)F)C[C@H]2CC)c(C(=O)N[C@H]2CNC[C@H]2F)n1 [Compound 1-291, 2′-ethoxy-5-[(2R)-2-ethyl-4-[6-methoxy-2-(trifluoromethyl)pyridine-3-carbonyl]piperazin-1-yl]-N-[(3S,4R)-4-fluoropyrrolidin-3-yl]-[2,3′-bipyridine]-6-carboxamide]
- Ki: < 10 nM

— patent US10981894B2, “Melanocortin subtype-2 receptor (MC2R) antagonists and uses thereof” (Crinetics Pharmaceuticals, Inc., priority 2018, dated 2021)
